Key:
Osteocalcin−/− mice = experiment: Intracerebro-ventricular (ICV) infusion in Osteocalcin−/− mice, behavioral tests; assay type: in vivo, mouse
Procedure: Osteocalcin−/−, Gprc6a−/−, Osteocalcin-mCherry, and Osteocalcin foxed mice have been previously described (Ducy et al., 1996, Nature 382:448-452; Oury et al., 2011, Cell 144:796-809). Mouse genotypes were determined by PCR. For all experiments, controls were littermate female WT, Cre-expressing, or flox/flox. All mice were maintained on a pure 129-Sv genetic background except for the inducible deletion Osteocalcin model (mix background: 25% C57/BL6 and 75% 129sv). For inducible gene deletion mice, tamoxifen was prepared in corn oil and injected intraperitoneally (IP) (1 mg/20g of body weight) over one week. For osteocalcin delivery to pregnant mice, IP injections (240 ng/day) were performed as soon as a plug was present daily until delivery (E0.5-E18.5). For osteocalcin or leptin infusion in adult Osteocalcin−/− or ob/ob mice, pumps (Alzet micro-osmotic pump, Model 1002) delivering osteocalcin (300 ng/hr), leptin (50 ng/hr), or vehicle were surgically installed subcutaneously in the backs of 3-month old mice. […] Leptin and osteocalcin content in sera and tissues were determined by ELISA.
Tail suspension testing was performed as previously described (Mayorga et al., 2001, J. Pharmacology Exper. Therapeutics 298:1101-1107; Stem et al., 1985, Psychopharmacology 85:367-370). […] The parameter recorded was the number of seconds spent immobile. Mice were scored by a highly trained observer, over a 5 min period, blind to the genotype of the mice.
Anxiety and locomotor activity of mice were measured using the open field test (David et al., 2009, Neuron 62:479-493). […] Mice were monitored throughout each test session by video tracking and analyzed using Matlab software. […] The overall motor activity was quantified as the total distance travelled. The anxiety was quantified measuring the number of rearings and the time and distance spent in the center versus periphery of the open field chamber (in %).
Each mouse was allowed to explore the apparatus for 5 min. Global activity was assessed by measuring the number of entries […] (David et al, 2009, Neuron 62:479-493). […]

[1] = system: CREB phosphorylation in the hippocampus; experiment: Stereotactic injection into hippocampus, pCREB and PKA immunofluorescence; assay type: in vivo, mouse; conditions: 16 h post injection
Description: The resulting effects on animal behavior of direct recombinant uncarboxylated osteocalcin delivery raise the question of the molecular mechanism of action of osteocalcin in the brain. Given that osteocalcin acts through a G-protein coupled receptor pathway in other tissues, e.g., pancreas and testis, the phosphorylated CREB levels in the hippocampi of Ocn−/− and WT animals was checked. […] The hippocampus is essential for optimal spatial learning and memory in rodents. It was then asked whether the acute stereotactic injection of 10 ng of recombinant uncarboxylated osteocalcin directly into the hippocampus of WT animals would affect pCREB levels.

osteocalcin: Recombinant osteocalcin bacterially produced, cleaved from the GST subunit; completely undercarboxylated at all three sites; full-length mouse osteocalcin (YLGASVPSPDPLEPTREQCELNPACDELSDQYGLKTAYKRIYGITI)
anxiety and depression features (Osteocalcin−/− mice; Osteocalcin−/− mice, ICV 10 ng/hour, week-long treatment): corrected the anxiety and depression features
leakage of centrally delivered hormone into the general circulation (osteocalcin in blood) (Osteocalcin−/− mice; Osteocalcin−/− mice, ICV infusion): no leakage
defects in anxiety, depression, learning, and memory (Osteocalcin−/− mice; direct administration to the brains of adult Osteocalcin−/− mice): rescued defects in anxiety, depression, learning, and memory
pCREB staining ([1]; 10 ng into hippocampus of WT animals, vs PBS hemisphere): pCREB staining was increased
PKA staining ([1]; 10 ng into hippocampus, injected hemisphere): widespread and dramatic increase in PKA staining
